These results are taken from US4608378A, “Tetrahydroisoxazolo[4,5-c]pyridine derivatives useful in the treatment of malfunctions of the acetylcholine or muscarinic systems” (H. Lundbeck A/S, priority 1983, dated 1986).

Read-outs that look alike come from different tables or passages of the source.

Data set [1] deals with isoniazide-induced seizures in mice. The data set can be described thus: Isoniazide antagonism (convulsions). The format is in vivo. As to conditions: Mus musculus, ip, read-out: Isoniazide antagonism ED50. Here is the method:
Isoniazide 300 mg/kg s.c.
Five mice are used for each dose level. Immediately after administration of test substance, isoniazide 300 mg/kg is injected s.c. This dose of isoniazide induces intermittent tonic clonic seizures within 60 minutes.
The calculations are performed as an "on-line procedure" on the EDP-terminal. The results are recorded as % increase in time until convulsions occur and, ED50 values were determined.

The subject of data set [2] is heat stimulus reaction in rats. The data set can be described thus: Hot Plate Test. As to conditions: Rattus norvegicus, sc, 0.5 h, s.c., 55° C. hot plate, 30 minutes after injection. Format: in vivo. As for the experimental part: A group of 10 rats was used for each dose. Each rat was placed on a 55° C. hot plate and the reaction time in seconds was recorded from the moment the rat was placed on the plate until the rat reacted to the heat stimulus. The criteria for reaction were licking of paws, lifting of legs or jumping. The rat was removed from the plate immediately after the reaction. The rat was rejected if the reaction time was more than 10 seconds. After control testing the test substance was injected subcutaneously. The rat was tested on the hot plate 30 minutes after the injection and the reaction times were recorded. A cut-off time of 30 seconds was used. The results were expressed as mean percent effect (MPE), and ED50 values were calculated.

Data set [3] concerns pain threshold in mice. The data set can be described thus: Mouse Grid Shock (pain threshold). Format: in vivo. Conditions: ip, read-out: Grid shock MED. Here is the method: The mouse grid consists of a perspex cage with wire grid bottom and a perspex lid, on which is placed a microphone sensitive to the frequency of mouse-squeak. A stimulator with motordriven potentiometer applies a sequence of square wave impulses of continuously increasing milliamperage to the grid. Frequence of impulses 20 cycles/sec., duration 5 msec. Milliamperage is recorded on a digital amperemter connected to the stimulator. Activation of the microphone by a mouse-squeak cuts off the current and the final milliamperage appear on the meter.
Five mice are used for each dose level. Each mouse serves as its own control. Prior to the administration of test substance the animals are placed on the grid one at a time, and the pain threshold is determined by increasing the current intensity until the mouse squeaks. The pain threshold may be read on the milliampermeter. Fifteen minutes and 30 minutes after administration of test substance the mice are tested again and the pain thresholds recorded.
Analgesic effect is present when the pain threshold is increased over the predosing value (control value). The results are stated as % increase in pain threshold calculated on the basis of the control value. The registration can also be done as an on-line procedure. In this case the punching instruction and punching cards will be provided automatically, and the results will be registered as a minimal effective dose (MED) determined after van der Waerden's X-test.

Data set [4] concerns muscarinic cholinergic receptors (guinea pig ileum). The experiment in a line: Muscarinic cholinergic agonism, guinea pig ileum. The format is cell-based. Conditions: Cavia porcellus; isolated guinea pig ileum, contraction, log-probit analysis; read-out: Musc. agonism ileum ED50. Here is the method:
Muscarinic cholinergic agonism, guinea pig ileum
Tyrode solution (NaCl 137 mM, KCl 2.7 mM, CaCl2 1.8 mM, MgCl2 1.1 mM, NaH2 PO4 0.32 mM, NaHCO3 4.8 mM, glucose 5.0 mM) foregassed with oxygen.
A guinea pig is killed by a blow on its head and exsanguinated. The caudal part (about 15 cm) of ileum is removed and cleaned in Tyrode solution. Three ileum pieces (2.5-3.0 cm long) are cut and placed separately in 10 ml organ baths containing Tyrode solution. Each specimen is fixed to a pin in the bottom of the organ bath and connected through a spring to a Grass FT 03 transducer (isotonic measurement). The specimens are kept under a tone of 1.0 g.
Concentration response curves to acetylcholine and test drugs are obtained by adding alternately acetylcholine and the test drugs in Tyrode solution to the both in 3-6 different concentrations. Each concentration is allowed to exert its maximal contracting effect before the tissue is washed and the next concentration is added.
From the concentration effect curves the […] values for acetylcholine and the test drugs are calculated by log-probit analysis.

Data set [5] has as its target muscarinic cholinergic receptors. The experiment in a line: 3H-PrBCM binding to muscarinic cholinergic receptors (brain). Conditions: rat whole brain minus cerebellum; 1.5 nM 3H-PrBCM, 30° C. Here is the method:
^3 --H-PrBCM binding to muscarinic cholinergic receptors
Whole brain minus cerebellum of a rat was homogenized in 10 vol icecold 0.32M sucrose, pH 7.4. The homogenate was centrifuged at 600 g for 10 minutes and the supernatant at 25000 g for 55 min. at 4° C. with rehomogenization of the pellet in 0.32M sucrose. Incubation tubes in triplicate received at 30° C. test substance and tissue suspension. After 10 min. of incubation ligand (NEN,28-44 Ci/mmol) was added (final conc. of ^3 H-PrBCM: 1.5 nM). After 15 min. of incubation the reaction was stopped by addition of sodiumthiosulphate. The samples were filtered through Whatman GF/B filters (25 mm). The tubes and filters were rinsed twice with buffer. Non-specific binding was determined in the presence of 2.5 μM atropine. IC50 values were calculated by log probit analysis.

For data set [6] the following is noted: peripheral administration; cited from earlier work.
For data set [7] the following is noted: peripheral administration; cited from earlier work. This is another data set of the same source.
The conditions of data set [8]: cited from earlier work.
The test system of data set [9] is AcCh receptors. As to conditions: background statement; cited from earlier work.
The mark [10] stands for this setting: mice, test compound i.p., isoniazide 300 mg/kg s.c., time until convulsions.
Setting [11] is: mice, minimal effective dose, increase in pain threshold, test substance i.p. (may be tested orally).

Take `C=CCOc1noc2c1CNCC2` [O--Allyl-THPO, 3-Allyloxy-4,5,6,7-tetrahydroisoxazolo[4,5-c]pyridine]: the 50% effective dose (ED50) in data set [1] (setting [10]) was 23 µmol/kg; in [2], greater than 92 µmol/kg. Further, in data set [3] (setting [11]), the minimal effective dose worked out at 46 µmol/kg. In addition, in data set [4], the EC50 is greater than 13 µM. In addition, the IC50 in [5] was found to be 9.6 µM.

Regarding `CCCOc1noc2c1CNCC2` [O--Propyl-THPO, 3-Propoxy-4,5,6,7-tetrahydroisoxazolo[4,5-c]pyridine], the median effective dose (ED50) is 50 µmol/kg in data set [1] (setting [10]) and greater than 91 µmol/kg in [2]. Also, the minimal effective dose in data set [3] (setting [11]) was greater than 91 µmol/kg. Also, in [4], the EC50 is greater than 13 µM. For the same molecule, the IC50 in [5] is 10 µM.

On to `CCOc1noc2c1CNCC2` [O--Ethyl-THPO, 3-Ethoxy-4,5,6,7-tetrahydroisoxazolo[4,5-c]pyridine], for which the figures for the ED50 in data set [1] (setting [10]) and in data set [2] were 7.3 µmol/kg and greater than 98 µmol/kg, respectively. Also, the minimal effective dose in [3] (setting [11]) was greater than 98 µmol/kg. The EC50 in data set [4] came to 3.4 µM. Besides, the concentration for half-maximal inhibition (IC50) in [5] amounted to 6 µM.

Consider `CC=CCOc1noc2c1CNCC2` [O--Crotyl-THPO, 3-(2-Butenyloxy)-4,5,6,7-tetrahydroisoxazolo[4,5-c]pyridine], for which the 50% effective dose (ED50) in [1] (setting [10]) is less than 43 µmol/kg; in [2], greater than 87 µmol/kg. The minimal effective dose in data set [3] (setting [11]) was 170 µmol/kg. Moreover, the EC50 in data set [4] was greater than 13 µM. In data set [5], this molecule displayed a 50% inhibitory concentration (IC50) of 14 µM.

With `COc1noc2c1CNCC2` [O--Methyl-THPO, 3-Methoxy-4,5,6,7-tetrahydroisoxazolo[4,5-c]pyridine], the figures for the median effective dose (ED50) in data set [1] (setting [10]) and in data set [2] were 2.8 µmol/kg and 62 µmol/kg, respectively. Besides, the minimal effective dose in [3] (setting [11]) was 26 µmol/kg. The EC50 in data set [4] turned out to be 1.8 µM. Further, the IC50 in [5] is 45 µM.

With `c1ccc(COc2noc3c2CNCC3)cc1` [O--Benzyl-THPO, 3-Benzyloxy-4,5,6,7-tetrahydroisoxazolo[4,5-c]pyridine], the ED50 was 19 µmol/kg in data set [1] (setting [10]) and greater than 75 µmol/kg in data set [2]. In [3] (setting [11]), the minimal effective dose was greater than 150 µmol/kg. The EC50 in data set [4] was greater than 13 µM. In addition, the IC50 in [5] came to 32 µM.

Consider `CC(C)Oc1noc2c1CNCC2` [O--Isopropyl-THPO, 3-Isopropoxy-4,5,6,7-tetrahydroisoxazolo[4,5-c]pyridine], for which the ED50 is 19 µmol/kg in [1] (setting [10]) and greater than 91 µmol/kg in [2]. Also, the minimal effective dose in data set [3] (setting [11]) is greater than 46 µmol/kg. In addition, in data set [4], the EC50 is greater than 13 µM. In addition, in data set [5], the concentration for half-maximal inhibition (IC50) came to 3.5 µM.

For `COC(=O)C1=CCCN(C)C1` [Arecoline, methyl 1-methyl-1,2,5,6-tetrahydropyridine-3-carboxylate], the central effects result in data set [6] is “very weak and frequently negligible central effects”. Moreover, the “penetration of the BBB” value in data set [7] is on record as “capable of penetrating the BBB after peripheral administration”. For the same molecule, in [8], the “hydrolysis of ester group in vivo” value is on record as “very rapidly hydrolyzed in vivo”. For the same molecule, the AcCh agonist entry in data set [9] is given as “AcCh agonist”.

As for `CCOc1noc2c1CN(C)CC2` [O--Ethyl-5-Methyl-THPO, 3-Ethoxy-5-methyl-4,5,6,7-tetrahydroisoxazolo[4,5-c]pyridine], the 50% effective dose (ED50) in data set [1] (setting [10]) is 41 µmol/kg; in [2] it was greater than 91 µmol/kg. Moreover, the minimal effective dose in [3] (setting [11]) was greater than 91 µmol/kg. Also, the EC50 in [4] amounted to 1.6 µM. This molecule also returned an IC50 in data set [5] of 2.4 µM.

In the case of `COc1noc2c1CN(Cc1ccccc1)CC2` [O--Methyl-5-Benzyl-THPO, 3-Methoxy-5-benzyl-4,5,6,7-tetrahydroisoxazolo[4,5-c]pyridine], the 50% effective dose (ED50) in data set [1] (setting [10]) was 71 µmol/kg; in data set [2] it was greater than 71 µmol/kg. In addition, in data set [3] (setting [11]), the minimal effective dose was greater than 71 µmol/kg. The EC50 in data set [4] was greater than 13 µM. Besides, in data set [5], the IC50 is greater than 50 µM.

Consider `CCCCOc1noc2c1CNCC2` [O--Butyl-THPO, 3-Butoxy-4,5,6,7-tetrahydroisoxazolo[4,5-c]pyridine], for which the ED50 in data set [1] (setting [10]) was greater than 170 µmol/kg; in data set [2], greater than 86 µmol/kg. Further, in data set [3] (setting [11]), the minimal effective dose was greater than 170 µmol/kg. In addition, the EC50 in data set [4] was greater than 13 µM. For the same molecule, in data set [5], the IC50 turned out to be 15 µM.

Take `Oc1noc2c1CNCC2` [THPO, 3-Hydroxy-4,5,6,7-tetrahydroisoxazolo[4,5-c]pyridinium bromide, reference compound]: the ED50 in data set [1] was greater than 1500 µmol/kg; in data set [2], greater than 90 µmol/kg. The minimal effective dose in data set [3] was greater than 1500 µmol/kg. Moreover, the EC50 in data set [4] is greater than 13 µM.

Turning to `C#CCOc1noc2c1CNCC2` [O--Propargyl-THPO, 3-(2-Propynyloxy)-4,5,6,7-tetrahydroisoxazolo[4,5-c]pyridine], the ED50 was determined as 3 µmol/kg in [1] (setting [10]) and 86 µmol/kg in data set [2]. In [3] (setting [11]), the minimal effective dose amounted to 11 µmol/kg. For the same molecule, the EC50 in data set [4] was 1.2 µM. The molecule further came in with an IC50 in data set [5] of 5.8 µM.

As to `CCN1CCc2onc(OC)c2C1` [O--Methyl-5-Ethyl-THPO, 3-Methoxy-5-ethyl-4,5,6,7-tetrahydroisoxazolo[4,5-c]pyridine], the median effective dose (ED50) in [1] (setting [10]) came to 84 µmol/kg. For the same molecule, the minimal effective dose in [3] (setting [11]) worked out at 84 µmol/kg. Also, the EC50 in data set [4] was greater than 13 µM. In data set [5], this molecule yielded a concentration for half-maximal inhibition (IC50) of 15 µM.

Consider `COc1noc2c1CN(C)CC2` [O,5-Dimethyl-THPO, 3-Methoxy-5-methyl-4,5,6,7-tetrahydroixoxazolo[4,5-c]pyridine], for which the ED50 stood at 29 µmol/kg in data set [1] (setting [10]) and 99 µmol/kg in data set [2]. Besides, in data set [3] (setting [11]), the minimal effective dose stood at 49 µmol/kg. Further, the EC50 in [4] was determined as 0.83 µM. Further, in [5], the IC50 was 27 µM.

For the molecule `COc1noc2c1CNCC2C` (racemic) [O,7-Dimethyl-THPO, 3-Methoxy-7-methyl-4,5,6,7-tetrahydroisoxazolo[4,5-c]pyridine], the ED50 in data set [1] (setting [10]) was 110 µmol/kg; in [2], greater than 98 µmol/kg. Further, in [3] (setting [11]), the minimal effective dose is 98 µmol/kg. Moreover, the EC50 in data set [4] was 13 µM. In addition, the IC50 in [5] turned out to be 12 µM.

In the case of `CC(C)COc1noc2c1CNCC2` [O--Isobutyl-THPO, 3-Isobutoxy-4,5,6,7-tetrahydroisoxazolo[4,5-c]pyridine], the ED50 in [1] (setting [10]) was 48 µmol/kg; in [2], greater than 86 µmol/kg. For the same molecule, the minimal effective dose in data set [3] (setting [11]) was greater than 86 µmol/kg. In data set [4], the EC50 was greater than 13 µM. The molecule also had a 50% inhibitory concentration (IC50) in [5] greater than 13 µM.
